Consider 54 compounds from PubChem BioAssay AID720623 (The Scripps Research Institute Molecular Screening Center, 2013).

The experiment deals with methionyl-tRNA synthetase (Trypanosoma brucei brucei). In words: T. brucei MetRS aminoacylation inhibitors, late-stage follow-up, counter-screen for T. brucei MetRS inhibitor project, biochemical, radioactivity, assay provider (AID 720623). As to conditions: Recombinant T. brucei MetRS enzyme, [3H]methionine tRNA aminoacylation, filter scintillation, 120 min, stronger effect = higher value. Background: A counterscreen serves to expose hits that act by an unwanted route or on another target.

Active and inactive are the calls of the source. The rule behind the calls is not given here.

Take `O=C(NCc1nc2ccccc2[nH]1)C1=C[C@@H](c2ccc(Br)cc2)C[C@@H](OCCCCO)O1`: the inhibition – broadly, the change of the read-out against control, counted positive when it falls – by setting is: (at 10 µM) 99.9%; (inhibition, at 1 µM) 84.2%.
On to `CC(C)(C)[C@@H]1C=C(C(=O)NCc2nc3ccccc3[nH]2)O[C@H](OCc2ccc(CO)cc2)C1`, for which the inhibition is 84.8% (at 10 µM) and 30.8% (inhibition, at 1 µM).
As for `CC(C)(C)[C@H]1C=C(C(=O)NCc2nc3ccccc3[nH]2)O[C@@H](OCc2ccc(CO)cc2)C1`, the inhibition by setting is: (at 10 µM) 83.8%; (inhibition, at 1 µM) 21.6%.
In the case of `O=C(NNC(=O)c1cc(-c2ccc(Cl)c(Cl)c2)nc2ccccc12)Nc1ccccc1`, the inhibition is, setting by setting: (at 10 µM) 85.5%; (inhibition, at 1 µM) 59.7%.
For the compound `CCO[C@H]1OC(C(=O)NCc2nc3ccccc3[nH]2)=C[C@@H](c2ccc(Br)cc2)[C@@H]1CCCO`, the inhibition is 81.6% (at 10 µM) and 0.88% (inhibition, at 1 µM).
Take `O=C(NCc1nc2ccccc2[nH]1)C1=C[C@@H](c2ccc3c(c2)OCO3)C[C@@H](OCCCCO)O1`: the inhibition was 93.7% (at 10 µM) and 50.4% (inhibition, at 1 µM).
In the same order, the values of `COc1ccc2[nH]c3nc(SCC(=O)Nc4ccc5c(c4)OCO5)nnc3c2c1` are 65.6% and 63.4%.
For `CCOC(=O)N1CCC(Nc2c(Nc3ccc(F)cc3)c(=O)c2=O)CC1`, the inhibition is 72.7% (at 10 µM) and 28.4% (inhibition, at 1 µM).
For the compound `CCCCCCCCCC1NC(C(=O)O)Cc2c1[nH]c1ccccc21` (stereo not drawn), the inhibition was 93.2% (at 10 µM) and 64.7% (inhibition, at 1 µM).
With `Cc1[nH]c2ccc(Br)cc2c(=O)c1CN1CCCCCC1`, the inhibition (at 10 µM) is 86.6% and the inhibition (inhibition, at 1 µM) came to 19.4%.
As for `O=C(Cn1cc(C(=O)C(=O)N2CCOCC2)c2ccccc21)Nc1cccc(C(F)(F)F)c1`, the inhibition is 100% (at 10 µM) and 87.5% (inhibition, at 1 µM).
In the same order, the values of `O=C(NCc1nc2ccccc2[nH]1)C1=C[C@H](c2ccc(Br)cc2)C[C@H](OCc2ccc(CO)cc2)O1` are 94.6% and 50.3%.
In the same order, the values of `O=C(NCc1nc2ccccc2[nH]1)C1=C[C@@H](c2ccc(Br)cc2)C[C@@H](OCc2ccc(CO)cc2)O1` are 97.6% and 62.1%.
Turning to `O=C(NCc1nc2ccccc2[nH]1)C1=C[C@@H](C2CC2)C[C@@H](OCc2ccc(CO)cc2)O1`, the inhibition (at 10 µM) is 93.6% and the inhibition (inhibition, at 1 µM) came to 52.8%.
`Brc1cnc2nc(SCc3nc4ccccc4[nH]3)[nH]c2c1`: the inhibition reads like this: (at 10 µM) 84.9%; (inhibition, at 1 µM) 23.7%.
On to `O=C(Nc1ccc(F)c(Cl)c1)C1CC(=O)n2c(nc3ccccc32)N1` (stereo not drawn), for which the inhibition runs as follows: (at 10 µM) 90.3%; (inhibition, at 1 µM) 44.9%.
Consider `Clc1ccc(OCCSCc2nc3ccccc3[nH]2)cc1`, for which the inhibition was 44.8% (inactive) (at 10 µM) and -2.58% (inhibition, at 1 µM).
`O=C(Cn1cnc2ccccc21)Nc1cccc([N+](=O)[O-])c1`: the inhibition was 91.9% (at 10 µM) and 44.9% (inhibition, at 1 µM).
With `O=C(NCc1nc2ccccc2[nH]1)C1=C[C@H](c2ccccc2)C[C@H](OCc2ccc(CO)cc2)O1`, the inhibition (at 10 µM) was 61.8% and the inhibition (inhibition, at 1 µM) turned out to be 7.32%.
With `Clc1ccc(-c2nnc(SCc3nc4ccccc4[nH]3)o2)c(Cl)c1`, the inhibition was 97% (at 10 µM) and 75.3% (inhibition, at 1 µM).
`O=C(C[C@H]1C(=O)N(Cc2ccccc2)C[C@@H]1c1ccc(Br)cc1)Nc1ccc(Br)cc1`: the inhibition was 94.4% (at 10 µM) and 55.7% (inhibition, at 1 µM).
For `O=C1CC(N(CCc2ccccc2)C(=S)Nc2ccccc2)C(=O)N1c1ccc(Br)cc1` (stereo not drawn), in that order: 97.3% and 84.2%.
For `O=C(NCCc1nc2ccccc2[nH]1)c1ccc(Cl)c([N+](=O)[O-])c1`, in that order: 99.6% and 89.8%.
Consider `COc1ccccc1NS(=O)(=O)c1cccc(NC(=O)Nc2ccccc2)c1`, for which the inhibition (at 10 µM) was 95.1% and the inhibition (inhibition, at 1 µM) stood at 57%.
Turning to `CC(=O)c1c[nH]c(C(=O)NCc2cccc(C(F)(F)F)c2)c1`, the inhibition runs as follows: (at 10 µM) 92.7%; (inhibition, at 1 µM) 44.6%.
Take `O=C(CC(=O)Nc1cccc(Cl)c1)NN=Cc1ccccc1`: the inhibition is 81.1% (at 10 µM) and 28.2% (inhibition, at 1 µM).
For `CC(=O)c1ccc(N2CCN(C(=O)CCCn3c(=O)[nH]c4ccc(Br)cc4c3=O)CC2)cc1`, in that order: 97% and 68.1%.
As to `O=C(CN1CCSC1=NCc1ccccc1)c1ccc(Cl)c(Cl)c1`, the inhibition was 28% (inactive) (at 10 µM) and -1.95% (inhibition, at 1 µM).
For `COc1ccccc1-n1c(SCC(=O)Nc2ccc(Cl)cc2)nc(O)c(Cc2ccccc2)c1=O`, in that order: 67% and 2.04%.
Take `O=C(CCC(=O)Nc1cccc([N+](=O)[O-])c1)NN=Cc1cccs1`: the inhibition is, setting by setting: (at 10 µM) 74.3%; (inhibition, at 1 µM) 6.25%.
For `O=C(NCc1nc2ccccc2[nH]1)C1=C[C@@H](c2csc3ccccc23)C[C@@H](OCCCCO)O1`, the inhibition is, setting by setting: (at 10 µM) 89.2%; (inhibition, at 1 µM) 20.6%.
For `O=C(NCc1nc2ccccc2[nH]1)C1=C[C@H](c2csc3ccccc23)C[C@H](OCCCCO)O1`, the inhibition (at 10 µM) is 97.8% and the inhibition (inhibition, at 1 µM) turned out to be 71.1%.
With `C[C@H](O)[C@@H]1C(=O)N2CCc3c([nH]c4ccccc34)[C@@H]2C[C@@H]1N(C)Cc1ccc2c(c1)OCO2`, the inhibition is, setting by setting: (at 10 µM) 80.4%; (inhibition, at 1 µM) 1.98%.
For the compound `O=C(NNC(=O)c1ccc(-n2cncn2)c([N+](=O)[O-])c1)c1ccc(Cl)cc1`, the inhibition is 73% (at 10 µM) and 7.36% (inhibition, at 1 µM).
For `O=C(NCc1nc2ccccc2[nH]1)C1=C[C@@H](c2ccccc2)C[C@@H](OCc2ccc(CO)cc2)O1`, the inhibition (at 10 µM) is 94.3% and the inhibition (inhibition, at 1 µM) is 44.6%.
For `O=C(CC=NOCc1ccc([N+](=O)[O-])cc1)Nc1ccc(Cl)cc1`, the inhibition is, setting by setting: (at 10 µM) 86.5%; (inhibition, at 1 µM) 28.6%.
Consider `CCO[C@@H]1OC(C(=O)NCc2nc3ccccc3[nH]2)=C[C@H](c2ccc(Br)cc2)[C@H]1CCCO`, for which the inhibition is, setting by setting: (at 10 µM) 64%; (inhibition, at 1 µM) 6.72%.
For `O=C(CC=NOCc1ccc([N+](=O)[O-])cc1)Nc1ccc(Br)cc1`, in that order: 84.7% and 32.2%.
Regarding `COc1cccc(NC(=O)CSc2nnc3c(n2)[nH]c2ccc(C)cc23)c1`, the inhibition runs as follows: (at 10 µM) 94.2%; (inhibition, at 1 µM) 97.7%.
In the case of `CC(CC(=O)Nc1cccc(Br)c1)=NNC(=O)c1ccc(O)cc1O`, the inhibition is, setting by setting: (at 10 µM) 90.5%; (inhibition, at 1 µM) 36.5%.
In the case of `O=C1CC(SCc2nc3ccccc3[nH]2)C(=O)N1c1cccc(Cl)c1` (stereo not drawn), the inhibition (at 10 µM) was 52.6% and the inhibition (inhibition, at 1 µM) is 19.7%.
In the case of `Oc1c(Cl)cc(Cl)cc1CNc1nc2ccccc2[nH]1`, the inhibition is 98.7% (at 10 µM) and 88.3% (inhibition, at 1 µM).
For `Cc1ccc(NC(=O)CN(C)C(=O)CCSc2ccc(F)cc2)cc1`, in that order: 67.3% and -1.05%.
For the compound `CN(CC(=O)Nc1ccc(Cl)cc1)C(=O)c1ccc(-n2cncn2)c([N+](=O)[O-])c1`, the inhibition by setting is: (at 10 µM) 92.5%; (inhibition, at 1 µM) 38%.
On to `O=C(N/C(=C\c1cccnc1)c1nc2ccccc2[nH]1)c1cccc(Br)c1`, for which the inhibition by setting is: (at 10 µM) 71.7%; (inhibition, at 1 µM) 14.4%.
As for `O=C(NCc1nc2ccccc2[nH]1)C1=C[C@H](C2CC2)C[C@H](OCc2ccc(CO)cc2)O1`, the inhibition is 56.9% (at 10 µM) and -3.3% (inhibition, at 1 µM).
For `O=C(NCc1nc2ccccc2[nH]1)C1=C[C@H](c2ccc(Br)cc2)C[C@H](OCCCCO)O1`, the inhibition by setting is: (at 10 µM) 94.3%; (inhibition, at 1 µM) 51.6%.
In the case of `CC(C)OCCCN1CC(=O)N2C(c3cccc([N+](=O)[O-])c3)c3[nH]c4ccccc4c3C[C@H]2C1=O` (stereo partly drawn), the inhibition (at 10 µM) was 93.1% and the inhibition (inhibition, at 1 µM) came to 50%.
Regarding `CN1CC(=O)N2C(c3cccc([N+](=O)[O-])c3)c3[nH]c4ccccc4c3C[C@H]2C1=O` (stereo partly drawn), the inhibition reads like this: (at 10 µM) 96.7%; (inhibition, at 1 µM) 57.7%.
For the compound `CN(Cc1cc(Cl)cc(Cl)c1)[C@H]1C[C@H]2c3[nH]c4ccccc4c3CCN2C(=O)[C@H]1CO`, the inhibition was 101% (at 10 µM) and 95.1% (inhibition, at 1 µM).
For `O=C(NCc1nc2ccccc2[nH]1)C1=C[C@H](c2ccc3c(c2)OCO3)C[C@H](OCCCCO)O1`, the inhibition by setting is: (at 10 µM) 79.4%; (inhibition, at 1 µM) 5.68%.
In the same order, the values of `COc1ccc(CNC(=O)CSc2nnc3c(n2)[nH]c2ccc(F)cc23)cc1` are 89.6% and 47.5%.
In the same order, the values of `O=C1[C@@H]2Cc3c([nH]c4ccccc34)C(c3cccc([N+](=O)[O-])c3)N2C(=O)CN1CCCO` (stereo partly drawn) are 97.5% and 63.2%.
On to `COc1ccc(OCC(O)CNC(=O)Nc2ccc(Cl)cc2)cc1` (stereo not drawn), for which the inhibition (at 10 µM) is 61.9% and the inhibition (inhibition, at 1 µM) was found to be 28.9%.
